We go through 1 compound from PMC11320734 (ACS Pharmacology & Translational Science, 2024).

In data set [1] the target is ABHD6 (Homo sapiens, UniProt Q9BV23). The experiment in a line: Endocannabinoid target profiling: ABHD6. It counts as biochemical.
Data set [2] is described as follows: Aqueous stability assay (ASTA). The data set is classed as physicochemical. As to the method: The stability of the compound was assessed using the aqueous stability assay (ASTA), as previously described.[37] In short, aqueous solutions of RNB-61 were prepared at 5 different pH values (range 1–10), added to incubation plates and shaken for 10 min at 37 °C. Solutions were transferred to a filter plate (Millipore MSGVN2250, pore size 0.22 μm) and filtered into V- bottom plates (ABGene, AB-0800) prior to heat-sealing. The procedure was repeated, increasing the 37 °C incubation time by 2 h. Samples were analyzed by HPLC at 0 and 2 h. A compound was classified as unstable if <90% of the initial concentration was detected after 2 h.

Data set [3] can be described thus: Microsomal clearance. The note with it: rat, rat microsomes. The data set is classed as in vitro ADME.
Data set [4] can be described thus: Microsomal clearance. It counts as in vitro ADME. As to conditions: mouse, mouse microsomes; Table 3. As to the method: (§1) The hepatocyte clearance assay was performed as previously described.[39] For mice hepatocytes, the suspension cultures were either freshly prepared by liver perfusion or prepared from cryopreserved hepatocyte batches (pooled C57BL6 mouse hepatocytes were purchased from BioreclamationIVT (NY, USA)). For human hepatocytes, commercially available, pooled (5–20 donors), cryopreserved samples from nontransplantable liver tissues were used. For the suspension cultures, Nunc U96 PP-0.5 mL (Nunc Natural, 267245) plates were used, which were incubated in a Thermo Forma incubator from Fischer Scientific (Wohlen, Switzerland) equipped with shakers from Variomag Teleshake (Sterico, Wangen, Switzerland) for maintaining cell dispersion. The cell culture medium was William’s media supplemented with glutamine, antibiotics (100 IU/mL Penicillin-Streptomycin, Gibco), insulin, dexamethasone, and 10% fetal calf serum (FCS). Incubations of a test compound at 1 μM test concentration in suspension cultures of 1 × 10^6 cells mL^–1 (∼1 μg μL^–1 protein concentration) were performed in 96-well plates and shaken at 900 rpm for up to 2 h in a 5% CO2 atmosphere at 37 °C. After 3, 6, 10, 20, 40, 60, and 120 min, a 100 μL cell suspension in each well was quenched with 200 μL methanol containing an internal standard. Samples were then cooled and centrifuged before analysis by LC-MS/MS. […]

Data set [5] is described as follows: Hepatocyte clearance assay. The data set is classed as in vitro ADME. As to the method:
as §1

Data set [6] has as its target T1, CYP450 2C9 (Homo sapiens, UniProt P11712).
T1 construct: pooled human liver microsomes; from tissue; host or cells: pooled human liver microsomes
As to the kind of experiment: CYP inhibition in pooled human liver microsomes. The data set is classed as in vitro ADME. As to the method: (§2) Cytochrome P450 (CYP) assays were conducted as previously described.[41] In brief, RNB-61 was incubated at a range of concentrations with the following components: pooled human liver microsomes, CYP probe substrate around the reported Km, and NADPH with a final concentration: 1 mM in 100 mM sodium phosphate buffer (pH 7.4). The conditions were optimized for a linear metabolic rate for the probe substrate reactions. The analysis of the samples was carried out by LC-MS/MS. The assays generated two endpoints: IC50 (μM) and percent inhibition at the highest acceptable test concentration (typically 50 μM; lower if the highest concentration data are rejected due to insolubility). […] (GSH) adduct formation data was assessed as reported in a previous study.[42] Briefly, RNB-61 was incubated with human liver microsomes to form reactive metabolites, and glutathione was added as a nucleophile to convert the reactive metabolites into stable conjugates that could be analyzed by MS.
On the technique in general: Liver microsomes are a subcellular fraction often used to study metabolism.

For data set [7], the target named is T2, CYP450 2D6 (Homo sapiens, UniProt P10635).
T2 construct: pooled human liver microsomes; from tissue; host or cells: pooled human liver microsomes
The experiment in a line: CYP inhibition in pooled human liver microsomes. The data set is classed as in vitro ADME. As to the method: as §2

For data set [8], the target named is T3, CYP450 3A4 (Homo sapiens, UniProt P08684).
T3 construct: pooled human liver microsomes; from tissue; host or cells: pooled human liver microsomes
The experiment in a line: CYP inhibition in pooled human liver microsomes. The data set is classed as in vitro ADME. As to the method: as §2

In data set [9] the target is hERG channel (Homo sapiens, UniProt Q12809). As to the kind of experiment: hERG inhibition. The data set is classed as cell-based. On the technique in general: hERG is a cardiac potassium channel; its block is linked to QT prolongation.

By IC50 is commonly meant the concentration that inhibits the measured activity by half. By microsomal CLint is commonly meant the rate of metabolic loss divided by the concentration. A higher microsomal CLint goes with faster metabolism. What is called hepatocyte CLint is a measure of how fast metabolising enzymes remove a compound, apart from limits set by blood flow. High values mean faster metabolism, low ones greater metabolic stability.

ABHD6, sequence (Q9BV23 whole entry, species assumed): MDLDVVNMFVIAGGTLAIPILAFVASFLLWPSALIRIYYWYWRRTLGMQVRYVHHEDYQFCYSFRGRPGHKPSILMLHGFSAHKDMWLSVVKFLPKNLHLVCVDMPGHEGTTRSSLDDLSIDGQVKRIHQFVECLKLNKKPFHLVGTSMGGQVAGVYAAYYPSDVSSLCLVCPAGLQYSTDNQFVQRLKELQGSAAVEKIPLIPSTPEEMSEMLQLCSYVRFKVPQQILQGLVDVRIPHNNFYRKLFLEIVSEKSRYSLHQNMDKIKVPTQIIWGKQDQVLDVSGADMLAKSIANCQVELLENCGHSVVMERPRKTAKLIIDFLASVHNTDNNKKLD
hERG channel, sequence (Q12809 whole entry): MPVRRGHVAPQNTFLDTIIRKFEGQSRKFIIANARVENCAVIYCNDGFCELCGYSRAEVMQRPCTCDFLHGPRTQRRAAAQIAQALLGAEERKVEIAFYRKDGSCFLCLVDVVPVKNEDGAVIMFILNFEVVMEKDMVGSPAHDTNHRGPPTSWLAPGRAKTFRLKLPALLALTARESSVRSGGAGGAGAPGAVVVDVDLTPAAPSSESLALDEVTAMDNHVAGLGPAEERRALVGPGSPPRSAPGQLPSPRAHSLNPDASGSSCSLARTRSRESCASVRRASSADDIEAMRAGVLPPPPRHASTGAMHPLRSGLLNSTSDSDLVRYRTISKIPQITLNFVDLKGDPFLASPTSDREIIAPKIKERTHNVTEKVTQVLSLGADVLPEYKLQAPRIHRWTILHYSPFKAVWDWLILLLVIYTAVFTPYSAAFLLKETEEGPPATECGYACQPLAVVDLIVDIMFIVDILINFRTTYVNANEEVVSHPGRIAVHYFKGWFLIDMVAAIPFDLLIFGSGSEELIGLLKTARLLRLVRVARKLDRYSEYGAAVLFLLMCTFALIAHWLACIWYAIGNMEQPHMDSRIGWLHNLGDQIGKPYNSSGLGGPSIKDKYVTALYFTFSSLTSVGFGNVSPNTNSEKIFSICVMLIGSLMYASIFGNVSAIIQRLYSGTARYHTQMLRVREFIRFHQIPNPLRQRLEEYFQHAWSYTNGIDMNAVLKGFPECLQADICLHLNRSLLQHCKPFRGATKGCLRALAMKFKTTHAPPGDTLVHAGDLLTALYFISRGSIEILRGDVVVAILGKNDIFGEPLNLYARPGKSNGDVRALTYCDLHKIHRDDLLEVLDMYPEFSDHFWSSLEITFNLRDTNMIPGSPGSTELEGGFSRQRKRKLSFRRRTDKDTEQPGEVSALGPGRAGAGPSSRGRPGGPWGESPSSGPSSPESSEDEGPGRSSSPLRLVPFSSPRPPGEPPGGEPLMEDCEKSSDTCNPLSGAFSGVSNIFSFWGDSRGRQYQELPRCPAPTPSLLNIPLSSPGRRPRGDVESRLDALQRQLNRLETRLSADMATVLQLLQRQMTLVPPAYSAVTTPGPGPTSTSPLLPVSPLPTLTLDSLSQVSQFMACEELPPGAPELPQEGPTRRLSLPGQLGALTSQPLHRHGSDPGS
T1 sequence (P11712 whole entry): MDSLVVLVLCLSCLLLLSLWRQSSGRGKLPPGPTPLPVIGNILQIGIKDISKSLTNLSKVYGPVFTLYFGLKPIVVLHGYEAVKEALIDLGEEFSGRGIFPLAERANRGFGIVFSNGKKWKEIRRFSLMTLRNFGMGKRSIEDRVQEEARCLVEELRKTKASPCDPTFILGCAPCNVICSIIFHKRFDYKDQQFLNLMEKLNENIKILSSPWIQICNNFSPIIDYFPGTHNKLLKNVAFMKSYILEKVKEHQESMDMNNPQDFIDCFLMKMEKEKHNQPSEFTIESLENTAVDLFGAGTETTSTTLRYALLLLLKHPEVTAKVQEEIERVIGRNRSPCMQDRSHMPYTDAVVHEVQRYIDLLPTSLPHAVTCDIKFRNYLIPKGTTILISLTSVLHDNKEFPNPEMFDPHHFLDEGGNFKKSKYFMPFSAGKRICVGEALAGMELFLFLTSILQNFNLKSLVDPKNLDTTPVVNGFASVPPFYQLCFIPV
T2 sequence (P10635 whole entry): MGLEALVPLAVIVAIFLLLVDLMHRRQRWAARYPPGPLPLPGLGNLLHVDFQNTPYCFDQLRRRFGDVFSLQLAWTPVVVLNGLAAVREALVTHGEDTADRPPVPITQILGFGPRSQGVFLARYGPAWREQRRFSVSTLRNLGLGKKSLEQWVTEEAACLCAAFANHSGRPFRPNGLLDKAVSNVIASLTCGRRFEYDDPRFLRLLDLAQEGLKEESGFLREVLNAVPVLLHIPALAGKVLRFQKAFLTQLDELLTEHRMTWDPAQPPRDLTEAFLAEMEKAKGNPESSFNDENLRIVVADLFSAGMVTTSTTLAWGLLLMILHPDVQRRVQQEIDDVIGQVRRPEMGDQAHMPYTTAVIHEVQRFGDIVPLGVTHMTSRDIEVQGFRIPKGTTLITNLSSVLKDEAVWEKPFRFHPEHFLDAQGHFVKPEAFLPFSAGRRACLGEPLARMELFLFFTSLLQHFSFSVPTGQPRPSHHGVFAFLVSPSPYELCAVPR
T3 sequence (P08684 whole entry): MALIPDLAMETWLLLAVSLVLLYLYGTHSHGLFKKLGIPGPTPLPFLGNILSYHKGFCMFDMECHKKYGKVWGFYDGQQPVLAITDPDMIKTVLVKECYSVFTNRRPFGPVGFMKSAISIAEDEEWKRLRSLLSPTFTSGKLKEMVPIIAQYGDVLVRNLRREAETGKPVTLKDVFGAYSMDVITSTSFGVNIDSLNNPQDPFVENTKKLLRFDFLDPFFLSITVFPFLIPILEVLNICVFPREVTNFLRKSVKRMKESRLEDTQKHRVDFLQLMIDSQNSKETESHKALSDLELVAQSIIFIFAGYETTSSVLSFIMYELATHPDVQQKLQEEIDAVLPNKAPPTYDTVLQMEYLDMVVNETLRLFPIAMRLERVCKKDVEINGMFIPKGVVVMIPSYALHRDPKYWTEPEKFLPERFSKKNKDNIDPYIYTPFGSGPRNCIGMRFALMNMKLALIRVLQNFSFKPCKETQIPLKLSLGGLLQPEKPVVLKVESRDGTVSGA

As for `Cn1c(C(C)(C)C)cc(=NC(=O)c2cc(C(F)(F)F)ccc2OCC(C)(C)O)n1CC1CCC1` [RNB-61], the IC50 in [1] (Table S1, read-out: ABHD6 (Ki, IC50)) is more than 10 µM; in data set [6] it was 50 µM; in data set [7], 15.5 µM; in [8], 35.5 µM. In addition, the “inhibition of EC hydrolysis by ABHD6” value in data set [1] (screening concentration 10 μM) was “did not inhibit”. The “stability in aqueous solution at pH 1” value in [2] (2 h, 37 °C) was 104.4 % of initial [200 nM]. Also, the “stability in aqueous solution at pH 4” value in [2] (2 h, 37 °C) is 102.7 % of initial [200 nM]. Moreover, the “stability in aqueous solution at pH 6.5” value in data set [2] (2 h, 37 °C) is 102.7 % of initial [200 nM]. Moreover, in data set [2] (2 h, 37 °C), the “stability in aqueous solution at pH 8” value was 100.5 % of initial [200 nM]. Besides, the “stability in aqueous solution at pH 10” value in data set [2] (2 h, 37 °C) is 101.6 % of initial [200 nM]. For the same compound, the “stability in aqueous solution” value in data set [2] (2 h at 37 °C at pH 1, 4, 6.5, 8 and 10) was “stable”. The microsomal CLint in [3] (Table 1) was less than 10 µL/min/mg; in [3] (Table 3), not above 10 µL/min/mg; in data set [4] it was not above 10 µL/min/mg. Also, the hepatocyte CLint at 1 μM in data set [5] (C57BL6, mouse) came out at 48.5 µL/min/1e6 cells; in data set [5] (human, pooled cryopreserved human hepatocytes in suspension culture) it was 85 µL/min/1e6 cells. The hERG inhibition in [9] is more than 10 µM.
